Values quoted from earlier work as cited in patent US7968117B1, “Externally triggered microcapsules” (The United States of America as represented by the …, priority 1994, dated 2011).

Assays:
[1] = dogs' brain, artificially heated region
[2] = preferred value within the printed range

heating temperature of the brain regions showing extravasation of Eb [1] | Structure (SMILES) | HLB (preferred) [2]
greater than 44 °C | Cc1cc(-c2ccc(/N=N/c3ccc4c(S(=O)(=O)[O-])cc(S(=O)(=O)[O-])c(N)c4c3O)c(C)c2)ccc1/N=N/c1ccc2c(S(=O)(=O)[O-])cc(S(=O)(=O)[O-])c(N)c2c1O.[Na+].[Na+].[Na+].[Na+] [free Eb, Evans blue dye] | –
– | CCCCCCCCCCCCCCCCCC(=O)OCC(O)CO (centres unmarked) [Glycerol Monostearate (gms), Glycerol Monostearate] | (3.8 preferred)
